What all share (format): functional
For test [1], the system named is Candida albicans. Briefly: Antifungal activity against Candida albicans 10231 assessed as inhibition of fungal growth incubated for 48 hrs by microbroth dilution method. (In general: In broth dilution the organism is exposed to a series of concentrations in liquid medium.)
The test system of another test is Pichia kudriavzevii. As to the kind of experiment: Antifungal activity against Candida krusei 4996 assessed as inhibition of fungal growth incubated for 48 hrs by microbroth dilution method.
Test [2] concerns Candida albicans. Briefly: Antifungal activity against Candida albicans SC5314 assessed as inhibition of fungal growth incubated for 48 hrs by microbroth dilution method.
A further test relates to Cryptococcus neoformans. Briefly: Antifungal activity against Cryptococcus neoformans 32,609 assessed as inhibition of fungal growth incubated for 72 hrs by microbroth dilution method.
The next test concerns Nakaseomyces glabratus. Briefly: Antifungal activity against Candida glabrata 537 assessed as inhibition of fungal growth incubated for 48 hrs by microbroth dilution method.
Another test deals with Candida tropicalis. As to the kind of experiment: Antifungal activity against Candida tropicalis 8915 assessed as inhibition of fungal growth incubated for 48 hrs by microbroth dilution method.
The subject of a further test is Aspergillus fumigatus. Briefly: Antifungal activity against Aspergillus fumigatus 7544 assessed as inhibition of fungal growth incubated for 72 hrs by microbroth dilution method.
For the next test, the system named is Candida parapsilosis. As to the kind of experiment: Antifungal activity against Candida parapsilosis 22019 assessed as inhibition of fungal growth incubated for 48 hrs by microbroth dilution method. Conditions: Lodderomyces parapsilosis.

The results in this text go back to ChEMBL document CHEMBL5620353, “Novel antifungal triazoles with alkynyl-methoxyl side chains: Design, synthesis, and biological activity evaluation” (Eur J Med Chem, 2023).

For orientation: MIC means the lowest concentration found to suppress growth.

SMILES strings stand for the structures. Values after ≈ are worked out from the molar mass of the structure shown.

For `C[C@@H](OCC#Cc1ccc(OC(F)(F)F)cc1)[C@](O)(Cn1cncn1)c1ccc(F)cc1F`, the MIC in the test with Candida albicans [1] is 32 µg/mL (≈ 68.5 µM); in the test with Pichia kudriavzevii, 64 µg/mL (≈ 137 µM); in the test with Candida albicans [2] it was 4 µg/mL (≈ 8.56 µM); in the test with Cryptococcus neoformans it was 4 µg/mL (≈ 8.56 µM); with Nakaseomyces glabratus, 2 µg/mL (≈ 4.28 µM); in the test on Candida tropicalis it was 32 µg/mL (≈ 68.5 µM). In addition, the minimum inhibitory concentration (MIC) in the test with Aspergillus fumigatus was 8 µg/mL (≈ 17.1 µM); in the test on Candida parapsilosis it was 16 µg/mL (≈ 34.2 µM).
As for `Cc1cccc(C#CCO[C@H](C)[C@](O)(Cn2cncn2)c2ccc(F)cc2F)c1`, the minimal inhibitory concentration (MIC) stood at 8 µg/mL (≈ 20.1 µM) in the test on Candida albicans [1]; 32 µg/mL (≈ 80.5 µM) with Pichia kudriavzevii; 0.5 µg/mL (≈ 1.26 µM) in the test on Candida albicans [2]; 4 µg/mL (≈ 10.1 µM) in the test with Cryptococcus neoformans; 0.25 µg/mL (≈ 0.629 µM) with Nakaseomyces glabratus; 64 µg/mL (≈ 161 µM) in the test with Candida tropicalis. Besides, the minimal inhibitory concentration (MIC) with Aspergillus fumigatus stood at 1 µg/mL (≈ 2.52 µM); in the test on Candida parapsilosis, 0.5 µg/mL (≈ 1.26 µM).
In the case of `C[C@@H](OCC#Cc1c(Cl)cccc1Cl)[C@](O)(Cn1cncn1)c1ccc(F)cc1F`, the MIC is over 64 µg/mL with Candida albicans [1]; 16 µg/mL (≈ 35.4 µM) in the test with Pichia kudriavzevii; 0.25 µg/mL (≈ 0.553 µM) in the test with Candida albicans [2]; at most 0.125 µg/mL in the test with Cryptococcus neoformans; 0.25 µg/mL (≈ 0.553 µM) with Nakaseomyces glabratus; over 64 µg/mL in the test with Candida tropicalis. For the same compound, the MIC with Aspergillus fumigatus and in the test with Candida parapsilosis was 4 µg/mL (≈ 8.84 µM) in each case.
`C[C@@H](OCC#Cc1ccc(C(F)(F)F)cc1)[C@](O)(Cn1cncn1)c1ccc(F)cc1F`: the MIC with Candida albicans [1] came out at 32 µg/mL (≈ 70.9 µM); in the test with Pichia kudriavzevii it was 64 µg/mL (≈ 142 µM); with Candida albicans [2] it was 4 µg/mL (≈ 8.86 µM); in the test with Cryptococcus neoformans, 8 µg/mL (≈ 17.7 µM); in the test with Nakaseomyces glabratus it was 1 µg/mL (≈ 2.22 µM); in the test on Candida tropicalis, 64 µg/mL (≈ 142 µM). The minimum inhibitory concentration (MIC) in the test on Aspergillus fumigatus and with Candida parapsilosis was 16 µg/mL (≈ 35.4 µM) each time.
As for `C[C@@H](OCC#Cc1ccccc1Cl)[C@](O)(Cn1cncn1)c1ccc(F)cc1F`, the minimum inhibitory concentration (MIC) with Candida albicans [1] was found to be 16 µg/mL (≈ 38.3 µM); in the test on Pichia kudriavzevii, 8 µg/mL (≈ 19.1 µM); in the test on Candida albicans [2], 0.25 µg/mL (≈ 0.598 µM); in the test with Cryptococcus neoformans, 2 µg/mL (≈ 4.79 µM); with Nakaseomyces glabratus it was 0.25 µg/mL (≈ 0.598 µM); with Candida tropicalis, 64 µg/mL (≈ 153 µM). Also, the MIC in the test on Aspergillus fumigatus amounted to 4 µg/mL (≈ 9.57 µM); with Candida parapsilosis, 1 µg/mL (≈ 2.39 µM).
For the compound `Cc1ccccc1C#CCO[C@H](C)[C@](O)(Cn1cncn1)c1ccc(F)cc1F`, the MIC amounted to 8 µg/mL (≈ 20.1 µM) in the test with Candida albicans [1]; 16 µg/mL (≈ 40.3 µM) with Pichia kudriavzevii; 0.25 µg/mL (≈ 0.629 µM) in the test on Candida albicans [2]; 1 µg/mL (≈ 2.52 µM) in the test with Cryptococcus neoformans; 0.25 µg/mL (≈ 0.629 µM) with Nakaseomyces glabratus; 32 µg/mL (≈ 80.5 µM) in the test on Candida tropicalis. Moreover, the MIC in the test with Aspergillus fumigatus and with Candida parapsilosis was 4 µg/mL (≈ 10.1 µM) in each case.
As to `C[C@@H](OCC#Cc1cccc(Cl)c1)[C@](O)(Cn1cncn1)c1ccc(F)cc1F`, the MIC with Candida albicans [1] came to 32 µg/mL (≈ 76.6 µM); in the test on Pichia kudriavzevii, 32 µg/mL (≈ 76.6 µM); in the test on Candida albicans [2] it was 0.5 µg/mL (≈ 1.2 µM); with Cryptococcus neoformans, 2 µg/mL (≈ 4.79 µM); in the test with Nakaseomyces glabratus it was 0.5 µg/mL (≈ 1.2 µM); with Candida tropicalis it was 32 µg/mL (≈ 76.6 µM). Moreover, the MIC in the test on Aspergillus fumigatus and in the test on Candida parapsilosis was 2 µg/mL (≈ 4.79 µM) each time.
On to `C[C@@H](OCC#Cc1cccc(Cl)c1Cl)[C@](O)(Cn1cncn1)c1ccc(F)cc1F`, for which the minimum inhibitory concentration (MIC) was 32 µg/mL (≈ 70.8 µM) with Candida albicans [1]; 64 µg/mL (≈ 142 µM) in the test with Pichia kudriavzevii; at most 0.125 µg/mL in the test with Candida albicans [2]; 4 µg/mL (≈ 8.84 µM) with Cryptococcus neoformans; 1 µg/mL (≈ 2.21 µM) in the test with Nakaseomyces glabratus; 32 µg/mL (≈ 70.8 µM) in the test with Candida tropicalis. The figures for the minimal inhibitory concentration (MIC) with Aspergillus fumigatus and in the test on Candida parapsilosis were 4 µg/mL (≈ 8.84 µM) and 8 µg/mL (≈ 17.7 µM), respectively.
Turning to `C[C@@H](OCC#Cc1c(F)cccc1F)[C@](O)(Cn1cncn1)c1ccc(F)cc1F`, the minimum inhibitory concentration (MIC) was 16 µg/mL (≈ 38.2 µM) with Candida albicans [1]; 4 µg/mL (≈ 9.54 µM) with Pichia kudriavzevii; at most 0.125 µg/mL with Candida albicans [2]; at most 0.125 µg/mL with Cryptococcus neoformans; 0.25 µg/mL (≈ 0.596 µM) with Nakaseomyces glabratus; 64 µg/mL (≈ 153 µM) in the test with Candida tropicalis. Besides, the minimal inhibitory concentration (MIC) in the test with Aspergillus fumigatus is 1 µg/mL (≈ 2.38 µM); in the test with Candida parapsilosis, 0.5 µg/mL (≈ 1.19 µM).
Take `COc1ccc(C#CCO[C@H](C)[C@](O)(Cn2cncn2)c2ccc(F)cc2F)cc1`: the MIC in the test on Candida albicans [1] was 16 µg/mL (≈ 38.7 µM); in the test with Pichia kudriavzevii, 32 µg/mL (≈ 77.4 µM); in the test on Candida albicans [2] it was at most 0.125 µg/mL; in the test on Cryptococcus neoformans it was 2 µg/mL (≈ 4.84 µM); with Nakaseomyces glabratus it was 0.25 µg/mL (≈ 0.605 µM); in the test on Candida tropicalis, 16 µg/mL (≈ 38.7 µM). For the same compound, the MIC in the test with Aspergillus fumigatus and in the test on Candida parapsilosis was 4 µg/mL (≈ 9.68 µM) throughout.
